Experimental data: the supplement of paper PMC10307832

Compound: Nc1nc2[nH]cc(CCc3ccc(C(=O)N[C@@H](CCC(=O)O)C(=O)O)cc3)c2c(=O)[nH]1 [Pemetrexed]
Test: relative viability (nuclei count vs DMSO), 5 days (fraction); higher = more cells survive
Summary of the method: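 Acceptance criteria were a control CV below 25% and at least one doubling per plate. Lung cancer cell lines in 1536-well plates got five library-drug doses (not always all listed) √10 apart by pinning and were left 5 days with no medium change. Viability divides treated-well nuclei by vehicle-well nuclei and is the median across plates. Nuclei were counted by MetaXpress from 4× Hoechst images.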

| Cell Line | relative viability (0.002 µM) | relative viability (0.006325 µM) | relative viability (0.02 µM) | relative viability (0.06325 µM) | relative viability (0.2 µM) | relative viability (0.2 µM, anchor plate) |
| --- | --- | --- | --- | --- | --- | --- |
| NCI-H2023 | 0.762 | 0.87 | 1.11 | 0.802 | 0.292 | 0.249 |
| Calu-6 | 0.92 | 0.96 | 1.1 | 1 | 0.886 |  |
| SW 900 | 0.809 | 0.907 | 0.948 | 0.814 | 0.487 | 0.496 |
| HOP-62 | 0.864 | 0.949 | 1.08 | 0.964 |  |  |
| H3255 | 0.819 | 1.03 | 0.986 | 1.07 | 0.827 | 0.587 |
| NCI-H1734 | 0.997 | 0.923 | 1.11 | 0.964 | 0.676 | 0.433 |
| SK-MES-1 | 0.979 | 0.932 | 1.07 | 0.976 | 0.934 | 0.94 |
| NCI-H1792 | 1.09 | 0.897 | 1 | 0.893 | 0.94 | 0.968 |
| EKVX | 0.854 | 0.984 | 1.03 | 0.995 | 0.734 | 0.404 |
| EPLC-272H | 0.888 | 0.892 | 1.1 | 0.935 | 0.798 | 0.313 |
| LK-2 | 0.854 | 0.925 | 1.06 | 0.868 | 0.685 | 0.284 |
| CAL-12T | 0.936 | 0.938 | 1.16 | 0.967 | 0.863 | 1.19 |
| NCI-H322M | 1.09 | 0.934 | 0.98 | 0.983 | 0.741 | 0.634 |
| NCI-H1650 | 0.788 | 0.89 | 1.21 | 0.633 | 0.341 | 0.367 |
| NCI-H2342 | 0.804 | 0.95 | 1.03 | 1.02 | 1.08 | 0.769 |
| SW 1573 | 1.04 | 0.951 | 1.05 | 0.893 | 0.976 | 0.897 |
| NCI-H2405 | 0.97 | 0.985 | 1.09 | 0.98 | 0.961 | 1.08 |
| LCLC-103H | 0.89 | 1.01 | 1.01 | 1.02 | 0.935 | 0.477 |
| HCC-44 | 0.839 | 0.989 | 1.06 | 0.995 | 0.796 | 0.647 |
| RERF-LC-KJ | 0.958 | 0.969 | 1.03 | 0.995 | 0.746 | 0.486 |

| Cell Line | relative viability (0.002 µM) | relative viability (0.006325 µM) | relative viability (0.02 µM) | relative viability (0.06325 µM) | relative viability (0.2 µM) | relative viability (0.2 µM, anchor plate) |
| --- | --- | --- | --- | --- | --- | --- |
| NCI-H1975 | 0.698 | 0.938 | 1.01 | 0.87 | 0.54 | 0.291 |
| IA-LM | 0.838 | 0.937 | 0.959 | 0.988 | 0.865 |  |
| LCLC-97TM1 | 0.913 | 0.891 | 0.93 | 1.02 |  |  |
| NCI-H520 | 0.938 | 0.969 | 0.95 | 0.936 | 0.975 | 0.693 |
| A-427 | 0.94 | 1.05 | 1.07 | 0.992 | 0.939 | 0.98 |
| ABC-1 | 0.911 | 1.02 | 1.22 | 0.976 | 0.822 |  |
| NCI-H460 | 0.878 | 0.969 | 1.03 | 0.745 | 0.116 | 0.065 |
| NCI-H1395 | 0.796 | 1.02 | 1.09 | 0.994 | 0.86 | 0.892 |
| EBC-1 | 0.951 | 0.951 | 1.09 | 1.01 | 0.735 |  |
| NCI-H23 | 0.893 | 0.987 | 1.18 | 0.91 | 0.905 | 0.714 |
| LOU-NH91 | 0.948 | 1 | 1.06 | 0.678 | 0.521 | 0.388 |
| NCI-H2009 | 0.905 | 0.953 | 1.14 | 0.997 | 0.976 | 1.03 |
| NCI-H358 | 0.958 | 0.925 | 0.864 | 0.293 | 0.24 | 0.176 |
| NCI-H2126 | 0.974 | 0.992 | 1.04 | 1 | 0.91 | 0.684 |
| ChaGo-K-1 | 1.05 | 0.942 | 0.98 | 0.418 | 0.312 | 0.261 |
| NCI-H1437 | 0.741 | 0.974 | 0.998 | 0.704 | 0.493 | 0.319 |
| SK-LU-1 | 0.944 | 0.979 | 1.05 | 1.12 | 1 | 0.927 |
| NCI-H838 | 0.99 | 0.917 | 1.08 | 0.869 | 0.359 | 0.257 |
| NCI-H1755 | 0.872 | 0.983 | 1.01 | 0.995 | 0.879 | 0.47 |
